The values below come from ChEMBL document CHEMBL6127085, “Design, synthesis and evaluation of novel LpxC inhibitors containing a hydrazone moiety as Gram-negative antibacterial agents” (Eur J Med Chem, 2024).

The nature of data set [1]: Stability in mouse plasma at 1 uM incubated for 6 hrs by LC-MS/MS analysis. The format is ADME, cell-free. The note with it: read-out: Stability.
For data set [2], the system named is Escherichia coli. The data set can be described thus: Antibacterial activity against Escherichia coli ATCC25922 assessed as reduction in bacterial growth measured after 18 to 24 hrs by CLSI protocol based method. It is filed as functional. The note with it: time 18-24 hrs.
Data set [3] deals with Pseudomonas aeruginosa. Nature of the data set: Antibacterial activity against Pseudomonas aeruginosa ATCC27853 assessed as reduction in bacterial growth measured after 18 to 24 hrs by CLSI protocol based method. The format is functional. The note with it: time 18-24 hrs.
Data set [4] relates to Pseudomonas aeruginosa. Nature of the data set: Antibacterial activity against Pseudomonas aeruginosa clinical isolate PAE22-1 assessed as reduction in bacterial growth measured after 18 to 24 hrs by CLSI protocol based method. The note with it: time 18-24 hrs. It is filed as functional.
Data set [5] concerns Klebsiella pneumoniae. The data set can be described thus: Antibacterial activity against Klebsiella pneumoniae ATCC700603 assessed as reduction in bacterial growth measured after 18 to 24 hrs by CLSI protocol based method. The format is functional. The note with it: time 18-24 hrs.
Data set [6] concerns Klebsiella pneumoniae. The data set can be described thus: Antibacterial activity against Klebsiella pneumoniae clinical isolate KPN+22-1 assessed as reduction in bacterial growth measured after 18 to 24 hrs by CLSI protocol based method. The format is functional. The note with it: time 18-24 hrs.
Data set [7] in a line: Metabolic stability in human liver microsomes assessed as half life at 1 uM preincubated for 5 mins followed by NADPH addition and measured after 5 to 60 mins by LC-MS analysis. The format is ADME, Microsome. The note with it: liver microsomes, time 10-65 min. Background: Liver microsomes are vesicles of endoplasmic reticulum, rich in cytochrome P450 enzymes.
Data set [8] can be described thus: Metabolic stability in rat liver microsomes assessed as half life at 1 uM preincubated for 5 mins followed by NADPH addition and measured after 5 to 60 mins by LC-MS analysis. It is filed as ADME, Microsome. The note with it: liver microsomes, time 10-65 min.
A short description of data set [9]: Metabolic stability in mouse liver microsomes assessed as half life at 1 uM preincubated for 5 mins followed by NADPH addition and measured after 5 to 60 mins by LC-MS analysis. The format is ADME, Microsome. The note with it: liver microsomes, time 10-65 min.
Data set [10] can be described thus: Metabolic stability in human liver microsomes assessed as intrinsic clearance at 1 uM preincubated for 5 mins followed by NADPH addition and measured after 5 to 60 mins by LC-MS analysis. The note with it: time 10-65 min, read-out: CLH. It is filed as ADME, Microsome.
Data set [11] is described as follows: Metabolic stability in rat liver microsomes assessed as intrinsic clearance at 1 uM preincubated for 5 mins followed by NADPH addition and measured after 5 to 60 mins by LC-MS analysis. It is filed as ADME, Microsome. The note with it: liver microsomes, time 10-65 min, read-out: CLH.
Data set [12] can be described thus: Metabolic stability in mouse liver microsomes assessed as intrinsic clearance at 1 uM preincubated for 5 mins followed by NADPH addition and measured after 5 to 60 mins by LC-MS analysis. It is filed as ADME, Microsome. The note with it: liver microsomes, time 10-65 min, read-out: CLH.
A short description of data set [13]: Intrinsic clearance in human. The format is ADME. The note with it: read-out: CLH.
A short description of data set [14]: Intrinsic clearance in rat. It is filed as ADME. The note with it: read-out: CLH.
Data set [15] is described as follows: Intrinsic clearance in mouse. The format is ADME, organism-based. The note with it: read-out: CLH.
The subject of another data set is HepG2. The data set can be described thus: Cytotoxicity against human HepG2 cells assessed as inhibition of cell growth measured after 48 hrs by MTT assay. The format is functional, cell-based. The note with it: HepG2, 48 h.
Data set [16] in a line: Plasma protein binding in human assessed as drug recovery at 1 uM incubated for 6 hrs by LC-MS/MS analysis. It is filed as ADME, cell-free. The note with it: read-out: Drug recovery.
A short description of data set [17]: Stability in human plasma at 1 uM incubated for 6 hrs by LC-MS/MS analysis. The note with it: read-out: Stability. It is filed as ADME, cell-free.
Data set [18] in a line: Plasma protein binding in rat assessed as drug recovery at 1 uM incubated for 6 hrs by LC-MS/MS analysis. The note with it: read-out: Drug recovery. The format is ADME, cell-free.
The nature of data set [19]: Stability in rat plasma at 1 uM incubated for 6 hrs by LC-MS/MS analysis. The note with it: read-out: Stability. The format is ADME, cell-free.
The nature of data set [20]: Plasma protein binding in mouse assessed as drug recovery at 1 uM incubated for 6 hrs by LC-MS/MS analysis. The format is ADME, cell-free. The note with it: read-out: Drug recovery.
A short description of data set [21]: Half life in male Sprague-Dawley rat at 10 mg/kg, IG measured upto 24 hrs by LC-MS analysis. The format is ADME, organism-based. The note with it: in vivo, po.
The nature of data set [22]: Tmax in male Sprague-Dawley rat at 10 mg/kg, IG measured upto 24 hrs by LC-MS analysis. It is filed as ADME, organism-based. The note with it: in vivo, po.
Data set [23] in a line: Cmax in male Sprague-Dawley rat at 10 mg/kg, IG measured upto 24 hrs by LC-MS analysis. The format is ADME, organism-based. The note with it: in vivo, po.
Data set [24] can be described thus: AUC (0 to t) in male Sprague-Dawley rat at 10 mg/kg, IG measured upto 24 hrs by LC-MS analysis. It is filed as ADME, organism-based. The note with it: in vivo, po.
Data set [25] can be described thus: MRT (0 to t) in male Sprague-Dawley rat at 10 mg/kg, IG measured upto 24 hrs by LC-MS analysis. The note with it: in vivo, po. It is filed as ADME, organism-based.
Data set [26] in a line: Oral bioavailability in male Sprague-Dawley rat at 10 mg/kg, IG measured upto 24 hrs by LC-MS analysis. The note with it: in vivo. It is filed as ADME, organism-based.
A short description of data set [27]: Half life in male Sprague-Dawley rat at 1 mg/kg, iv measured upto 24 hrs by LC-MS analysis. It is filed as ADME, organism-based. The note with it: in vivo.
Data set [28] in a line: AUC (0 to t) in male Sprague-Dawley rat at 1 mg/kg, iv measured upto 24 hrs by LC-MS analysis. The note with it: in vivo. The format is ADME, organism-based.
Data set [29] in a line: Clearance in male Sprague-Dawley rat at 1 mg/kg, iv measured upto 24 hrs by LC-MS analysis. The note with it: in vivo. The format is ADME, organism-based.
A short description of data set [30]: MRT (0 to t) in male Sprague-Dawley rat at 1 mg/kg, iv measured upto 24 hrs by LC-MS analysis. The note with it: in vivo. The format is ADME, organism-based.
A short description of data set [31]: Volume of distribution at steady state in male Sprague-Dawley rat at 1 mg/kg, iv measured upto 24 hrs by LC-MS analysis. It is filed as ADME, organism-based. The note with it: in vivo, read-out: Vdss.
The subject of data set [32] is Escherichia coli. Nature of the data set: Potency index, ratio of CHIR-090 MIC to test compound MIC for antibacterial activity against Escherichia coli ATCC25922 assessed as reduction in bacterial growth measured after 18 to 24 hrs by CLSI protocol based method. It is filed as functional. The note with it: time 18-24 hrs.

In brackets after ≈: the same amount, converted by molar mass. A value given as a limit tells only on which side of the number the result lay.

Usually MIC stands for the least concentration at which growth counts as inhibited. By half-life is commonly meant how long it takes for the measured level to halve. Usually IC50 stands for the point on the concentration scale where inhibition reaches its midpoint. A word on the Tmax: it is the time from dosing to the highest level. In general, Cmax refers to the maximum level reached in the sampled fluid or tissue. Broadly, the AUC(0-t) is the area under the concentration-time curve up to a stated or last time point. Read a low AUC(0-t) as less exposure. In general, MRT last refers to the average time that molecules of a dose stay in the body. What is called bioavailability is dose-corrected exposure relative to a reference, in per cent. A higher bioavailability goes with good availability. The term clearance denotes the volume of plasma or blood freed of the substance per unit of time. Lower therefore signals a low capacity for elimination. As to `C[C@@H](O)[C@H](NC(=O)c1ccc(C#Cc2ccc(CN3CCOCC3)cc2)cc1)C(=O)NO`, the results for the remaining at 6 h, 1 µM in [1], in [17] and in data set [19] were 93.2%, 106% and 94.5%, respectively. Besides, the MIC in the data set with Escherichia coli [2] was found to be 0.5 µg/mL (≈ 1.14 µM); with Pseudomonas aeruginosa [3], 4 µg/mL (≈ 9.14 µM); in the data set on Pseudomonas aeruginosa [4], 2 µg/mL (≈ 4.57 µM); with Klebsiella pneumoniae [5] it was 8 µg/mL (≈ 18.3 µM); in the data set with Klebsiella pneumoniae [6], 1 µg/mL (≈ 2.29 µM). The half-life at 1 µM in data set [7] amounted to 16.8 h; in [8], 0.362 h; in [9], 1.23 h. The figures for the microsomal CLint at 1 µM in data set [10], in data set [11] and in data set [12] were 1.38 µL/min/mg, 64 µL/min/mg and 18.8 µL/min/mg, respectively. For the same compound, the CLint scaled in data set [13] stood at 1.3 mL/min/kg; in data set [14], 115 mL/min/kg; in data set [15], 74.2 mL/min/kg. Also, the IC50 with HepG2 was > 30 µM. The recovery at 6 h, 1 µM in data set [16] was 101%; in data set [18], 91.7%; in data set [20] it was 98.6%. In addition, the half-life in [21] was 1.12 h; in [27] it was 0.29 h. The Tmax in data set [22] was determined as 0.25 h. The Cmax in data set [23] was found to be 262 ng/mL. Further, the figures for the AUC(0-t) at 24 h in data set [24] and in [28] were 243 ng·h/mL and 249 ng·h/mL, respectively. For the same compound, the MRT last at 24 h worked out at 1.09 h in data set [25] and 0.24 h in data set [30]. For the same compound, the bioavailability in data set [26] was found to be 10.6%. This compound also had a clearance in data set [29] of 66.7 mL/min/kg. Also, in data set [31], the Vd worked out at 0.98 L/kg.
As for `C[C@@H](O)[C@H](NC(=O)c1ccc(C#Cc2ccc(/C=N/N3CCOCC3)cc2)cc1)C(=O)NO`, the MIC with Escherichia coli [2] was 0.25 µg/mL (≈ 0.555 µM); in the data set with Pseudomonas aeruginosa [3] it was > 64 µg/mL; in the data set on Pseudomonas aeruginosa [4], 1 µg/mL (≈ 2.22 µM); in the data set with Klebsiella pneumoniae [5], > 64 µg/mL; in the data set with Klebsiella pneumoniae [6], 1 µg/mL (≈ 2.22 µM). The figures for the half-life at 1 µM in [7], in data set [8] and in data set [9] were 4.98 h, 7.9 h and 6.1 h, respectively. For the same compound, the values for the microsomal CLint at 1 µM in data set [10], in data set [11] and in [12] were 7.16 µL/min/mg, 4.53 µL/min/mg and 1.79 µL/min/mg, respectively. Besides, the results for the CLint scaled in data set [13], in data set [14] and in data set [15] were 6.76 mL/min/kg, 8.15 mL/min/kg and 7.04 mL/min/kg, respectively. The Ratio in the data set on Escherichia coli [32] was determined as 2.
